Source: patent US9227960B2, “Bisaryl (thio)morpholine derivatives as S1P modulators” (ABBVIE B.V., priority 2010, dated 2016)
Where a name gives a salt, the structure may show the parent alone.

Legend:
human S1P5 receptor = target: T1, human S1P5 receptor (Homo sapiens, UniProt Q9H228); test: In vitro functional activity (agonism) on human S1P5 receptors, CHO-human-S1P5-Aequorin assay; format: cell-based; conditions: CHO-human-S1P5-Aequorin cells, luminescence, read-out: S1P5 pEC50 (converted)
T1 construct: host or cells: CHO (AequoScreen recombinant cell line, co-expressing mitochondrially targeted apo-Aequorin)
T1 sequence (Q9H228 whole entry): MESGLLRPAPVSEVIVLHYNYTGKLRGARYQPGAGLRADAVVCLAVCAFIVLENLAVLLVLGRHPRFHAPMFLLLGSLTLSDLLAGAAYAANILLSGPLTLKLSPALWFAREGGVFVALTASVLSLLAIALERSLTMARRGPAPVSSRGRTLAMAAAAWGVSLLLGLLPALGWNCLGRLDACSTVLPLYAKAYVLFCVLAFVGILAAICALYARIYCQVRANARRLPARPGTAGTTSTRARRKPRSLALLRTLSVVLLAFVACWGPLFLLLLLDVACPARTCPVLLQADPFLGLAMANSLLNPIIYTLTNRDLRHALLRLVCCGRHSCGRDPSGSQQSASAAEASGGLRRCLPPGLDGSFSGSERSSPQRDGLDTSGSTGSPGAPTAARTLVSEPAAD
Excerpt: In Vitro Functional Activity (Agonism) on Human S1P5 Receptors
(§1) The CHO-human-S1P5-Aecorin assay was bought from Euroscreen, Brussels (Euroscreen, Technical dossier, Human Lysophospholid S1P5 (Edg8) receptor, DNA clone and CHO AequoScreen™ recombinant cell-line, catalog no: ES-593-A, September 2006). Human-S1P5-Aequorin cells express mitochondrial targeted apo-Aequorin. Cells have to be loaded with coelanterazine, in order to reconstitute active Aequorin. After binding of agonists to the human S1P5 receptor the intracellular calcium concentration increases and binding of calcium to the apo-Aequorin/coelenterazine complex leads to an oxidation reaction of coelenterazine, which results in the production of apo-Aequorin, coelenteramide, CO2 and light (λmax 469 nm). This luminescent response is dependent on the agonist concentration. Luminescence is measured using the MicroBeta Jet (Perkin Elmer). Agonistic effects of compounds are expressed as pEC50. Compounds were tested at a 10 points half log concentration range, and 3 independent experiments were performed in single point's measurements.

human S1P3 receptor = target: T2, human S1P3 receptor (Homo sapiens, UniProt Q99500); test: In vitro functional activity (agonism) on human S1P3 receptors, CHO-human-S1P3-Aequorin assay; format: cell-based; conditions: CHO/Gα16/AEQ/h-S1P3 cells, luminescence, read-out: S1P3 pEC50 (converted)
T2 construct: cell line established at Solvay Pharmaceuticals; host or cells: CHO K1 (CHO/Gα16/AEQ/h-S1P3)
T2 sequence (Q99500 whole entry): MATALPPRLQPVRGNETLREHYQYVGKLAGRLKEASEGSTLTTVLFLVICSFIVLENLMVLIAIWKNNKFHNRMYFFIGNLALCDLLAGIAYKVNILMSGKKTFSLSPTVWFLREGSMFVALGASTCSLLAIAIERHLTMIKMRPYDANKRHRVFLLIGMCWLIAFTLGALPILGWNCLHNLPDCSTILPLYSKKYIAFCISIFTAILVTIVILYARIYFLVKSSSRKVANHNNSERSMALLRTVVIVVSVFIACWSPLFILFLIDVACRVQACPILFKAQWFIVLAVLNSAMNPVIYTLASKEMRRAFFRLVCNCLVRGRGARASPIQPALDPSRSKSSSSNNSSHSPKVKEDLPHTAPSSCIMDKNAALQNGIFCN
Excerpt: In Vitro Functional Activity (Agonism) on Human S1P3 Receptors
The CHO-human-S1P3-Aeqorin assay (CHO/Gα16/AEQ/h-S1P3) was established at Solvay Pharmaceuticals. The plasmid DNA coding for the S1P3 receptor (accession number in GenBank NM_005226 was purchased from UMR cDNA resource Centre (Rolla, Mo.). The pcDNA3.1/hS1P3 construct carrying the mitochondrially targeted apo-Aeqorin and Gα16 protein was transfected in CHO K1 cell-line.
as §1, with “Human-S1P3-Aequorin” for “The CHO-human-S1P5-Aecorin assay was bought from Euroscreen, Brussels (Euroscreen, Technical dossier, Human Lysophospholid S1P5 (Edg8) receptor, DNA clone and CHO AequoScreen™ recombinant cell-line, catalog no: ES-593-A, September 2006). Human-S1P5-Aequorin”, “S1P3” for “S1P5”

human S1P1 = target: T3, human S1P1 (Homo sapiens, UniProt P21453); test: In vitro functional activity (agonism) on human S1P1 receptors, CHO-K1-Human S1P1-c-AMP assay; format: cell-based; conditions: CHO-K1 cells expressing human S1P1, cAMP with Forskolin (HTRF), read-out: S1P1 pEC50 (converted)
T3 construct: host or cells: CHO-K1
T3 sequence (P21453 whole entry): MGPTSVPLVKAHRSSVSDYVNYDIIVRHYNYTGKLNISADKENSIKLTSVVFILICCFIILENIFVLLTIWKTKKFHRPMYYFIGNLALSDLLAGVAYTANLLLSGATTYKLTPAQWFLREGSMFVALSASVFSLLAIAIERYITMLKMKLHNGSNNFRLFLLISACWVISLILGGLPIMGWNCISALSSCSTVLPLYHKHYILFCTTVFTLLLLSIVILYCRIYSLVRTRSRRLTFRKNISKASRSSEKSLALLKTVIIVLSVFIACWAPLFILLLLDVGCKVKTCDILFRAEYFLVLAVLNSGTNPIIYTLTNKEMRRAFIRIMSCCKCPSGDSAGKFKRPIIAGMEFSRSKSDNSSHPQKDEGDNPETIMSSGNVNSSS
Procedure: In Vitro Functional Activity (Agonism) on Human S1P1 Receptors
The CHO-K1-Human S1P1-c-AMP assay was performed at Euroscreenfast, Brussels (Euroscreen, Human S1P1 coupling […] (Edg1) receptor, catalog no: FAST-0197C, December 2009).
Recombinant CHO-K1 cells expressing human S1P1, grown to mid-log Phase in culture media without antibiotics, detached, centrifuged and re-suspended. For agonist testing cells are mixed with compound and Forskolin and incubated at room temperature. Cells are lyses and cAMP concentration are estimated, according to the manufacturer specification, With the HTRF kit from CIS-BIO International (cat n° 62AM2PEB).
Agonistic effects of compounds are expressed as a percentage of the activity of the reference compound at its EC100 concentration, EC50 is calculated and results are reported as pEC50. Compounds were tested at a 10 points half log concentration range duplicated in 1 experiment.

| SMILES | EC50 (human S1P5 receptor) [nM] | EC50 (human S1P3 receptor) [nM] | EC50 (human S1P1) [nM] | melting point [°C] |
| --- | --- | --- | --- | --- |
| Cc1ccc(Oc2ccc(C3CN(CCC(=O)O)CCO3)cc2)cc1C (centres unmarked) [Compound 47, 3-{2-[4-(3,4-Dimethyl-phenoxy)-phenyl]-morpholin-4-yl}-propionic acid hydrochloride] | 200 | > 10000 |  |  |
| O=C(O)CCN1CCOC(c2ccc(Oc3cccc4ccccc34)cc2)C1 (centres unmarked) [Compound 29, 3-{2-[4-(Naphthalen-1-yloxy)-phenyl]-morpholin-4-yl}-propionic acid hydrochloride] | 63.1 | > 10000 |  |  |
| CC1(C)CN(CCC(=O)O)CC(c2ccc(Oc3c(Cl)cccc3Cl)cc2)O1 (centres unmarked) [Compound 73, 3-{6-[4-(2,6-Dichloro-phenoxy)-phenyl]-2,2-dimethyl-morpholin-4-yl}-propionic acid] | 158 |  | > 3160 |  |
| Cc1cccc(Oc2ccc(C3CN(CCC(=O)O)CCS3)cc2)c1C.Cl (centres unmarked) |  |  |  | 178 to 183 |
| Cc1cccc(Cl)c1Oc1ccc(C2CN(CCC(=O)O)CCS2)cc1.Cl (centres unmarked) |  |  |  | 192.5 to 195 |
| Cc1cccc(Oc2ccc(C3CN(CCCC(=O)O)CCO3)cc2)c1C (centres unmarked) (as salt: hydrochloride) [Compound 87, 4-{2-[4-(2,3-Dimethyl-phenoxy)-phenyl]-morpholin-4-yl}-butyric acid hydrochloride] |  |  |  | 225 to 227 |
| Cc1cccc(Oc2ccc(C3CN(CCCC(=O)O)CCO3)cc2)c1C (centres unmarked) [Compound 87, 4-{2-[4-(2,3-Dimethyl-phenoxy)-phenyl]-morpholin-4-yl}-butyric acid hydrochloride] | 1000 |  |  |  |
| Cc1ccc(Oc2ccc(C3CN(CCC(=O)O)CCO3)cc2)cc1Cl (centres unmarked) [Compound 15, 3-{2-[4-(3-Chloro-4-methyl-phenoxy)-phenyl]-morpholin-4-yl}-propionic acid hydrochloride] | 501 | > 10000 |  |  |
| Cc1cccc(C)c1Oc1cccc(C2CN(CCC(=O)O)CCO2)c1 (centres unmarked) (as salt: hydrochloride) |  |  |  | 219 to 223 |
| O=C(O)CCN1CCOC(c2ccc(Oc3ccccc3C(F)(F)F)cc2)C1 (centres unmarked) [Compound 35, 3-{2-[4-(2-Trifluoromethyl-phenoxy)-phenyl]-morpholin-4-yl}-propionic acid hydrochloride] | 200 | > 10000 |  |  |
| Cl.O=C(O)CCN1CCOC(c2ccc(Oc3c(Cl)cccc3Cl)cc2F)C1 (centres unmarked) |  |  |  | 207 to 209 |
| Cl.O=C(O)CCN1CCOC(c2ccc(Oc3c(Cl)cccc3Cl)cc2C(F)(F)F)C1 (centres unmarked) |  |  |  | 135 to 136 |
| CCCCc1ccc(Oc2ccc(C3CN(CCC(=O)O)CCO3)cc2)cc1 (centres unmarked) [Compound 26, 3-{2-[4-(4-Butyl-phenoxy)-phenyl]-morpholin-4-yl}-propionic acid hydrochloride] | 2000 | 5010 |  |  |

More lines, now with the values ahead:

| EC50 (human S1P5 receptor) [nM] | EC50 (human S1P3 receptor) [nM] | EC50 (human S1P1) [nM] | melting point [°C] | SMILES |
| --- | --- | --- | --- | --- |
| 1580 | > 10000 |  |  | Cc1ccc(Oc2ccc(C3CN(CCC(=O)O)CCO3)cc2)cc1 (centres unmarked) [Compound 64, 3-[2-(4-p-Tolyloxy-phenyl)-morpholin-4-yl]-propionic acid hydrochloride] |
| 2000 | > 10000 |  |  | O=C(O)CCN1CCOC(c2ccc(Oc3ccc(OCc4ccccc4)cc3)cc2)C1 (centres unmarked) [Compound 57, 3-{2-[4-(4-Benzyloxy-phenoxy)-phenyl]-morpholin-4-yl}-propionic acid hydrochloride] |
| 501 | > 10000 | > 3160 |  | O=C(O)CCN1CCOC(c2ccc(C(=O)c3c(Cl)cccc3Cl)cc2)C1 (centres unmarked) [Compound 6, 3-{2-[4-(2,6-Dichloro-benzoyl)-phenyl]-morpholin-4-yl}-propionic acid hydrochloride] |
| 631 | > 10000 |  |  | O=C(O)CCN1CCOC(c2ccc(Oc3ccc4ccccc4c3)cc2)C1 (centres unmarked) [Compound 68, 3-{2-[4-(Naphthalen-2-yloxy)-phenyl]-morpholin-4-yl}-propionic acid hydrochloride] |
|  |  |  | 155 to 160 | Cl.O=C(O)CCN1CCSC(c2ccc(Oc3ccccc3Cl)cc2)C1 (centres unmarked) |
|  |  |  | 224 to 227 | Cl.O=C(O)CCN1CCOC(c2ccc(Oc3c(Cl)cccc3Cl)c(Cl)c2)C1 (centres unmarked) |
| 631 | > 10000 | > 31600 |  | Cc1cccc(Oc2ccc(C3(C)CN(CCC(=O)O)CCO3)cc2)c1C (centres unmarked) [Compound 80, 3-{2-[4-(2,3-Dimethyl-phenoxy)-phenyl]-2-methyl-morpholin-4-yl}-propionic acid hydrochloride] |
| 631 | > 10000 |  |  | Cc1cccc(C)c1Nc1ccc(C2CN(CCC(=O)O)CCO2)cc1 (centres unmarked) [Compound 2, 3-{2-[4-(2,6-Dimethyl-phenylamino)-phenyl]-morpholin-4-yl}-propionic acid hydrochloride] |
